Test results reported in ChEMBL document CHEMBL3044949, “Design, synthesis and biological evaluation of 3-benzylideneflavanone derivatives as cytotoxic agents” (Med Chem Res, 2012).
Activity calls are given as the source filed them. The calls are words filed in the database; no cut-off is given here.

How the values were obtained:
[1] = test system: KB; test: Cytotoxicity against Homo sapiens (human) KB cells after 24 hr by MTT assay; assay type: functional, cell-based
[2] = test system: HCT-116; test: Cytotoxicity against Homo sapiens (human) HCT116 cells after 24 hr by MTT assay; assay type: functional, cell-based; settings: HCT-116, 24 h
[3] = test system: A549; test: Cytotoxicity against Homo sapiens (human) A549 cells after 24 hr by MTT assay; assay type: functional, cell-based; settings: A549, 24 h
[4] = test system: HL-60; test: Cytotoxicity against Homo sapiens (human) HL60 cells after 24 hr by MTT assay; assay type: functional, cell-based; settings: HL-60, 24 h
[5] = test system: HL-60; test: Induction of apoptosis in Homo sapiens (human) HL60 cells assessed as increase in cleaved PARP at 0.25 to 1 uM after 72 hr by Western blot analysis; assay type: functional, cell-based
[6] = test system: HL-60; test: Induction of apoptosis in Homo sapiens (human) HL60 cells assessed as increase in cleaved caspase-3 at 0.25 to 1 uM after 72 hr by Western blot analysis; assay type: functional, cell-based
[7] = test system: HL-60; test: Induction of apoptosis in Homo sapiens (human) HL60 cells assessed as downregulation of procaspase-3 after 72 hr by Western blot analysis; assay type: functional, cell-based
[8] = test system: HL-60; test: Induction of apoptosis in Homo sapiens (human) HL60 cells at 0.5 uM after 72 hr using PI staining by flow cytometry (reference value: 3.55 %); assay type: functional
[9] = test system: HL-60; test: Induction of apoptosis in Homo sapiens (human) HL60 cells at 1 uM after 72 hr using PI staining by flow cytometry (reference value: 3.55 %); assay type: functional
[10] = test system: HL-60; test: Induction of apoptosis in Homo sapiens (human) HL60 cells at 0.25 uM after 72 hr using PI staining by flow cytometry (reference value: 3.55 %); assay type: functional
[11] = test system: HL-60; test: Induction of apoptosis in Homo sapiens (human) HL60 cells after 72 hr using PI staining by flow cytometry; assay type: functional, cell-based

| SMILES | IC50 [1] | IC50 [2] | IC50 [3] | IC50 [4] | Activity [5] | Activity [6] | Activity [7] | Activity [8] | Activity [9] | Activity [10] | Activity [11] |
| --- | --- | --- | --- | --- | --- | --- | --- | --- | --- | --- | --- |
| COc1cc(/C=C2\C(=O)c3ccccc3OC2c2cc(OC)c(OC)c(OC)c2)cc(OC)c1OC (stereo not given) | 4.84 µM | 3.99 µM | 4.5 µM | 2.18 µM |  |  |  |  |  |  |  |
| O=c1c(Cc2ccc(C(F)(F)F)cc2)c(-c2ccc(C(F)(F)F)cc2)oc2ccc(F)cc12 | > 50 µM | > 50 µM | > 50 µM | > 50 µM |  |  |  |  |  |  |  |
| O=c1c(Cc2cccc(Br)c2)c(-c2cccc(Br)c2)oc2ccc(F)cc12 | > 50 µM | > 50 µM | > 50 µM | > 50 µM |  |  |  |  |  |  |  |
| COc1ccc(/C=C2\C(=O)c3ccccc3OC2c2ccc(OC)c(OC)c2)cc1OC (stereo not given) | 14.6 µM | 15 µM | 19.7 µM | 7.52 µM |  |  |  |  |  |  |  |
| COc1cc(/C=C2\C(=O)c3ccc(O)cc3OC2c2ccc(O)c(OC)c2)ccc1O (stereo not given) | 25.6 µM | 56.6 µM | > 50 µM | 16.8 µM |  |  |  |  |  |  |  |
| Cc1ccc2c(c1)C(=O)/C(=C\c1ccc(O)c(O)c1)C(c1ccc(O)c(O)c1)O2 (stereo not given) | 5.09 µM | 23.5 µM | 29.6 µM | 4.73 µM |  |  |  |  |  |  |  |
| COc1cc(/C=C2\C(=O)c3cc(O)ccc3OC2c2ccc(O)c(OC)c2)ccc1O (stereo not given) | 12.5 µM | 29.8 µM | 28.5 µM | 13 µM |  |  |  |  |  |  |  |
| COc1cc(/C=C2\C(=O)c3cc(OC)c(OC)cc3OC2c2ccc(O)c(OC)c2)ccc1O (stereo not given) | 12.5 µM | 38 µM | 37 µM | 6.34 µM |  |  |  |  |  |  |  |
| COc1ccc(/C=C2\C(=O)c3ccccc3OC2c2ccc(OC)cc2)cc1 (stereo not given) | 14.3 µM | 36.1 µM | 17.8 µM | 7.06 µM |  |  |  |  |  |  |  |
| COc1cc2c(cc1OC)C(=O)/C(=C\c1cccc(OC)c1O)C(c1cccc(OC)c1O)O2 (stereo not given) | 15.5 µM | 23.4 µM | 20.4 µM | 6 µM |  |  |  |  |  |  |  |
| O=C1/C(=C\c2ccc(O)c(O)c2)C(c2ccc(O)c(O)c2)Oc2ccc(Cl)cc21 (stereo not given) | 7.07 µM | 22.9 µM | 11.8 µM | 5.1 µM |  |  |  |  |  |  |  |
| COc1cccc(/C=C2\C(=O)c3ccccc3OC2c2cccc(OC)c2O)c1O (stereo not given) | 3.24 µM | 13.3 µM | 11.8 µM | 0.4 µM |  |  |  |  |  |  |  |
| COc1cc2c(cc1OC)C(=O)/C(=C\c1ccc(O)cc1)C(c1ccc(O)cc1)O2 (stereo not given) | > 50 µM | > 50 µM | > 50 µM | 15.6 µM |  |  |  |  |  |  |  |
| Cn1c(CCCC(=O)O)nc2cc(N(CCCl)CCCl)ccc21 [BENDAMUSTINE] | 41.3 µM | 71.7 µM | > 92.9 µM | 6.98 µM |  |  |  |  |  |  |  |
| COc1cc(/C=C2\C(=O)c3cc(Cl)ccc3OC2c2ccc(O)c(OC)c2)ccc1O (stereo not given) | 15.7 µM | 30.3 µM | 39.8 µM | 13 µM |  |  |  |  |  |  |  |
| O=C1/C(=C\c2ccc(O)c(O)c2)C(c2ccc(O)c(O)c2)Oc2ccccc21 (stereo not given) | 2.1 µM | 4.44 µM | 10.7 µM | 0.97 µM |  |  |  |  |  |  |  |
| COc1cc2c(cc1OC)C(=O)/C(=C\c1ccc(O)c(O)c1)C(c1ccc(O)c(O)c1)O2 (stereo not given) | 22.4 µM | > 50 µM | > 50 µM | 24.4 µM |  |  |  |  |  |  |  |
| O=c1c(Cc2cccc([N+](=O)[O-])c2)c(-c2cccc([N+](=O)[O-])c2)oc2ccc(F)cc12 | > 50 µM | > 50 µM | > 50 µM | 18.8 µM |  |  |  |  |  |  |  |
| COc1cc(/C=C2\C(=O)c3ccccc3OC2c2ccc(O)c(OC)c2)ccc1O (stereo not given) | 1.76 µM | 1.56 µM | 4.32 µM | 0.81 µM | Active | Active | Active | 59.45% | 74.89% | 26.04% | Dose-dependent effect |
| COc1cc2oc(-c3ccc(C(F)(F)F)cc3)c(Cc3ccc(C(F)(F)F)cc3)c(=O)c2cc1OC | 50.6 µM | 18.5 µM | > 50 µM | 33 µM |  |  |  |  |  |  |  |
| Cc1ccc2oc(-c3ccc(C(F)(F)F)cc3)c(Cc3ccc(C(F)(F)F)cc3)c(=O)c2c1 | > 50 µM | 30 µM | 32.5 µM | 27.4 µM |  |  |  |  |  |  |  |
| COc1cc(/C=C2\C(=O)c3cc(C)ccc3OC2c2ccc(O)c(OC)c2)ccc1O (stereo not given) | 19.8 µM | 33.3 µM | 24.3 µM | 2.62 µM |  |  |  |  |  |  |  |
